Data reported in PMC9021288 (Nature Communications, 2022).
Values after ≈ are worked out from the molar mass of the structure shown. Values joined by “and” are separate entries in the source; they are usually repeats but may differ in a detail not shown here. Identical values can stand only once. “Also recorded” adds a separate entry of the source.

How the values were obtained:
[1] = UV scan for phototoxicity; type: physicochemical
[2] = tested on: human G6PD-A-deficient RBCs; test: Hemolytic toxicity in NSG mice engrafted with G6PD-deficient human RBCs; details: for Hematocrit / Spleen weight: individual mice
Method: Hemolytic toxicity was determined in female NSG mice (Jackson Laboratories) using erythrocytes from a G6PD-A-deficient blood donor (0.4 u/g hemoglobin).

[3] = tested on: P. falciparum Pf3D7^0087/N9 and Pf3D7^20161128TAD17N214; test: PKPD efficacy studies in humanized NSG mice and PD model; type: in vivo, Plasmodium falciparum
Method: The experimental designs are summarized in Supplementary Table 30. […] Samples were processed under liquid-liquid extraction methods and analyzed by LC-MS/MS for quantitation in a Waters UPLC-TQD (Micromass, Manchester, UK).
Data preparation, exploration and model pre- and postprocessing were performed using R (version 3.6.3) and R package IQRtools (version 1.2.1 IntiQuan GmbH). Non-linear mixed-effects (NLME) modeling was used to estimate the PK and PD parameters using Monolix (Lixoft version MLX2018R2). The population PKPD model was developed with a two-stage approach: first, a population PK model was determined; then, the individual PK parameters were used as regression parameters and the PD parameters were estimated. The PD model consists of the balance between a parasite net growth rate and a drug killing rate. […] The growth rate of log-transformed parasite concentration was fixed at 0.03 /h based on prior experiments but estimating growth rate interindividual variability. Different Hill coefficients were tested.

[4] = tested on: cryopreserved human hepatocytes; test: MTT cytotoxicity in induction-study hepatocytes; type: cell-based; details: up to 500 µM, 72 h, one donor
[5] = biological target: T1, hKV 1.5 (Homo sapiens, UniProt P22460); test: Manual patch clamp; type: cell-based; details: for Charge / Peak current: single cells and Mean, mean
T1 construct: Metrion Biosciences
T1 sequence (P22460 whole entry): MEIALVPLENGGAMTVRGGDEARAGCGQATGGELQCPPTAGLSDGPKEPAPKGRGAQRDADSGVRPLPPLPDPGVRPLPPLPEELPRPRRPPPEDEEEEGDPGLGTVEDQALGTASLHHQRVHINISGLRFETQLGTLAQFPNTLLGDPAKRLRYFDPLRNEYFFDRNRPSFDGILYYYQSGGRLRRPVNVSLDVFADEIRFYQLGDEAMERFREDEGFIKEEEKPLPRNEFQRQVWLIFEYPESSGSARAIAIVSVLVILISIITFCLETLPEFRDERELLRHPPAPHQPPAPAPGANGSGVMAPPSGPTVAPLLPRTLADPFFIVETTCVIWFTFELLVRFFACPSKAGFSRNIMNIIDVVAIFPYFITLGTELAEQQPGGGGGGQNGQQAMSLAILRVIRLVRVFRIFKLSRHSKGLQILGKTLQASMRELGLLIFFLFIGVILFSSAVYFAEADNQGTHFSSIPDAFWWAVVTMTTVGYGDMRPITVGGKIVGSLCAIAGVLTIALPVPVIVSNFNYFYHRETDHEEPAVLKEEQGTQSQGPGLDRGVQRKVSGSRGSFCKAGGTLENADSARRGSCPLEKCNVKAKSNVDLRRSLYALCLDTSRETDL
Method: Safety studies were performed by commercial services using their standard protocols. […] Genotoxicity was investigated using the Ames test (Bacterial Reverse Mutation Assay) (Covance Laboratories Ltd, North Yorkshire, England). In vitro mammalian cell micronucleus screening assay was studied in human peripheral blood lymphocytes (BioReliance Corporation, Rockville, USA). Cardiotoxicity was determined against the hERG channel in an automated patch clamp assay using the Qpatch or against the hNaV 1.5, hKV 1.5 and hCaV 1.2 using a manual patch-clamp technique (Metrion Biosciences, Cambridge, UK). Cytotoxicity in human and rat primary hepatocytes was assessed using the CellTiter-Blue assay performed by commercial services (KaLy-Cell). The viability of HepG2 cells was monitored through the addition of 1 mM resazurin. Following 6 h incubation, the relative amount of reduced resazurin was detected in a fluorimeter and compared to the assay controls (vehicle: 0.1% DMSO and positive control: 10 µM puromycin).

[6] = Plasma protein binding, human
[7] = tested on: P. falciparum NF54 asexual blood-stage parasites; set-up: method as in earlier work; details: ref 15 (Schalkwijk et al.); cited from earlier work
[8] = 10 mg/kg group, day 0, individual mice
[9] = 10 mg/kg group, day 4, individual mice
[10] = 10 mg/kg group, day 7, individual mice
[11] = 25 mg/kg group, day 0, individual mice
[12] = 25 mg/kg group, day 4, individual mice
[13] = 25 mg/kg group, day 7, individual mice
[14] = 50 mg/kg group, day 0, individual mice
[15] = 50 mg/kg group, day 4, individual mice
[16] = 50 mg/kg group, day 7, individual mice

In the case of `C[C@@H](CNC(=O)[C@H](O)C(C)(C)CO)NC(=O)c1cc(F)c(F)cc1F` [MMV693183], the UV absorbance [1] is reported as “No absorbance >290 nm; also recorded: no detectable absorption above 290 nm”, the “Human RBCs” value [2, 8] is reported as 72.9% and 76.8% and 80.6% and 72.4% and the Reticulocytes [2, 8] is reported as 0.38% and 0.65% and 0.32% and 0.87%. The “Human RBCs” value [2, 9] was 67.9% and 72.1% and 75.9% and 68.6%, the Reticulocytes [2, 9] was 0.35% and 0.44% and 0.25% and 0.57% and the “Human RBCs” value [2, 10] was 59.6% and 65.8% and 72.2% and 63.3%. The Reticulocytes [2, 10] was 0.17% and 0.14% (2×) and 0.35%, the Hematocrit ([2]; 10 mg/kg group) was 53.45% and 54.69% and 60.66% and 56.45% and the Spleen weight ([2]; 10 mg/kg group) was 0.305 % of body weight and 0.306 % of body weight and 0.265 % of body weight and 0.369 % of body weight. For the same compound, the “Human RBCs” value [2, 11] was 78.9% and 75.9% and 78.6% and 71.6% and 75.5%, the Reticulocytes [2, 11] was 0.53% and 0.42% and 0.37% and 0.39% and 0.51% and the “Human RBCs” value [2, 12] was 77.9% and 71.9% and 76% and 64.1% and 70.3%. The Reticulocytes [2, 12] was 0.24% (2×) and 0.32% and 0.61% and 0.43%, the “Human RBCs” value [2, 13] was 77.4% and 67.8% and 68% and 58.3% and 68.8% and the Reticulocytes [2, 13] was 0.16% and 0.23% and 0.17% and 0.22% and 0.15%. For the same compound, the Hematocrit ([2]; 25 mg/kg group) was 61.54% and 73.81% and 62.16% and 56.36% and 57.35%, the Spleen weight ([2]; 25 mg/kg group) was 0.362 % of body weight and 0.462 % of body weight and 0.396 % of body weight and 0.366 % of body weight and 0.21 % of body weight and the “Human RBCs” value [2, 14] was 75.4% (2×) and 77.9% and 80.2% and 74.5%. For the same compound, the Reticulocytes [2, 14] was 0.4% and 0.55% and 0.42% and 0.47% and 0.58%, the “Human RBCs” value [2, 15] was 72.3% and 72.5% and 71.7% and 73.2% and 70.5% and the Reticulocytes [2, 15] was 0.27% and 0.41% and 0.23% and 0.34% and 0.49%. The “Human RBCs” value [2, 16] was 65.4% and 71.3% and 68.2% and 66% and 66.7%, the Reticulocytes [2, 16] was 0.2% (2×) and 0.1% (2×) and 0.3% and the Hematocrit ([2]; 50 mg/kg group) was 60.66% and 63.64% and 71.67% and 53.85% and 57.63%. For the same compound, the Spleen weight ([2]; 50 mg/kg group) was 0.357 % of body weight and 0.427 % of body weight and 0.135 % of body weight and 0.294 % of body weight and 0.382 % of body weight, the hemolytic toxicity ([2]; 10, 25, 50 mg/kg for four days) was “Absence of detectable hemolytic toxicity; also recorded: did not show signs of hemolytic toxicity” and the “EC50, concentration achieving 50percent of maximum effect” value ([3]; PD model estimate) was 11.5 ng/mL. It also gave an MIC ([3]; PKPD model) of 3.2 ng/mL (≈ 8.83 nM), an MPC90 ([3]; PKPD model) of 38.4 ng/mL and an ED90 ([3]; in vivo) of 4.4 mg/kg. For the same compound, the “time at which 3D7 parasites were cleared” value ([3]; single-dose groups) was 4 to 6 days, the “cell viability (MTT)” value [4] was “no change in cell viability” and the Inhibition ([5]; 10 µM) was 2.15%. The IC50 ([5]; hKV 1.5) was over 10000 nM, the Charge ([5]; hKv1.5, 300nM) was 4.53% and the Peak current ([5]; hKv1.5, 300nM) was 0.19%. For the same compound, the Peak current ([5]; hKv1.5, 1uM) was 1.06%, the Charge ([5]; hKv1.5, 3uM) was 8.60% and the Peak current ([5]; hKv1.5, 3uM) was 0.58%. For the same compound, the Peak current ([5]; hKv1.5, 10uM) was 2.15% and the plasma protein binding [6] was 52%.

For `CC(CNC(=O)C(O)C(C)(C)CO)NC(=O)CCc1ccccc1F` (stereo in doubt) [MMV689258], the IC50 [7] is listed as 5 nM.
